Our source for the IC50, Emax and remaining activity values is patent US20240376094A2, “SELECTIVE BCL-XL PROTAC COMPOUNDS AND METHODS OF USE” (Les Laboratoires Servier, priority 2021, published 2024).

For orientation: IC50 means the midpoint of a concentration-inhibition curve.

Assay type in all cases: cell-based
The subject of one test is NCI-H1650. The experiment in a line: CellTiter-Glo 3D proliferation assay, NCI-H1650 spheroids. Conditions: Homo sapiens, NCI-H1650, 120 h, 5 days; for Emax: read-out: NCI-H1650 Span (Amax). The gist of the method:
(§1)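 Both lines grown in RPMI-1640 + 10% FBS. COR-L105 plated flat at 1,000 cells/well overnight; NCI-H1650 grown as spheroids, 3,000 cells/well, 72 h. Compounds at 0.508 nM-10 μM final for 5 days, 37° C. ATP read by CellTiter-Glo (3D version for spheroids); IC50 from variable-slope fit normalized to untreated cells.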

A further test concerns the target T1, endogenous BCL-xL (Homo sapiens, UniProt Q07817).
T1 construct: endogenous in cells; host or cells: COR-L105 (ECACC No. 92031918); NCI-H1650 (ATCC No. CRL-5883)
Briefly: Degradation of endogenous BCL-xL in COR-L105 (ProteinSimple Jess). Conditions: COR-L105, 24 h, COR-L105, dose 300 nM, read-out: % BCL-xL vs. Untreated, COR-L105. The protocol: The BCL-xL degrader low molecular weight compounds were tested against two endogenous cancer cell lines: • COR-L105: ECACC No. 92031918 cultured in RPMI-1640+10% FBS • NCI-H1650: (ATCC No. CRL-5883 cultured in RPMI-1640+10% FBS
The ability of the BCL-xL degrader low molecular weight compounds to degrade endogenous BCL-xL was assessed using the ProteinSimple 2-40 kDa Jess Separation Module.
Cell lines were cultured in media that is optimal for their growth at 5% CO2, 37° C. in a tissue culture incubator. Prior to seeding for the degradation assay, the cells were split at least 2 days before the assay to ensure optimal growth density. On the day of seeding, adherent cells were lifted off tissue culture flasks using 0.25% trypsin. Cell viability and cell density were determined using a cell counter (Vi-Cell XR Cell Viability Analyzer, Beckman Coulter). Cells with higher than 85% viability were seeded for the assay.
The COR-L105 and the NCI-H1650 cell line were seeded in 6-well clear TC-treated multiple well plates (Costar® cat. #3516). Cells were seeded at a density of 2,000,000 cells per well in 2.5 mL of standard growth media. Plates were incubated at 5% CO2, 37° C. overnight in a tissue culture incubator. On the day of dosing, BCL-xL degrader low molecular weight compounds and a BCL-xL inhibitor control were prepared at 6× in standard growth media. The prepared drug treatments were then added to the cells resulting in a final concentration of 100-300 nM and a final volume of 3.0 mL per well. A control well of untreated cells was also included in the study. Each drug concentration was tested in singlet. Plates were incubated at 5% CO2, 37° C. for 24 hours in a tissue culture incubator.
After 24 hours, the adherent cells were lifted off tissue culture plates using 0.25% trypsin. Standard growth media was added to quench the trypsin and centrifuged for 5 minutes at 1500 rpm. Cell pellets were washed once with cold PBS and centrifuged for 5 minutes at 1500 rpm. Cells were then washed with 1 mL cold PBS and transferred to a 1.5 mL eppendorf tube. Cells were centrifuged for 10 minutes at ≥10,000 g at 4° C. in a benchtop mini-centrifuge. The entire supernatant was discarded and cells were resuspended thoroughly in 50 μL of RIPA lysis buffer, generated by the manufacturer's protocol (ProteinSimple, Cat. #CBS401: Lysis Kit—RIPA Buffer for Charge Assays). Lysates were incubated on ice for 30 minutes. Following incubation, lysates were spun in a benchtop mini-centrifuge for 15 minutes at full speed at 4° C. Supernatant was carefully transferred to a new eppendorf tube for downstream analysis.
Protein was quantified using a Pierce™ BCA Protein Assay Kit (ThermoFisher, cat #23225) following the manufacturer's instructions. A standard curve was prepared by adding 25 μL of each concentration of reference samples from a Pierce™ Bovine Serum Albumin Standard Pre-Diluted Set (ThermoFisher, cat #23208). Each reference sample was run in duplicate. Testing samples were prepared by diluting cell lysates 1:5 in UltraPure™ DNase/RNase-Free Distilled Water and tested in duplicates of 25 μL each. The BCA working reagent was prepared by addition of 50 parts of BCA Reagent A with 1 part of BCA Reagent B. For each testing well, 200 μL of BCA working reagent was added. The plate was incubated at 37° C. for 30 minutes. A SpectraMax M Series Multi-Mode Microplate Reader was used to measure the absorbance at 562 nm. A standard curve generated by the Pierce™ Bovine Serum Albumin Standard Pre-Diluted Set was used to normalize and calculate the BCA concentration of cell lysates. Only values that fell within the range of the standard curve were accepted for quantification.
The ProteinSimple 2-40 kDa Jess Separation Module was used to detect BCL-xL degradation in treated versus untreated lysates following the manufacturer's instructions (25-Capillary Cartridge, 8 pack, 2-40 kDa, cat #SM W012). […]

Another test relates to COR-L105. The experiment in a line: CellTiter-Glo proliferation assay, COR-L105. As to conditions: Homo sapiens, COR-L105, 120 h, COR-L105, 5 days; for Emax: read-out: COR-L105 Span (max). The gist of the method:
as §1
(In general: In ATP-based viability assays light output follows the ATP content of the culture.)

T1 sequence (Q07817 whole entry): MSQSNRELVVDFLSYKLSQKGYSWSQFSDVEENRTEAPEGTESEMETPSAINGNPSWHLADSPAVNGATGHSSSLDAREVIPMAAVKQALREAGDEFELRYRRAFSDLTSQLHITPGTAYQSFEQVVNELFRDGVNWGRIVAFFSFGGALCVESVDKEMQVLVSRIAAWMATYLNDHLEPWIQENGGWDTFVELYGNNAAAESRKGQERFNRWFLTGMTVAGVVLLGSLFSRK

Turning to `Cc1ncsc1-c1ccc(CNC(=O)[C@@H]2C[C@@H](O)CN2C(=O)[C@@H](NC(=O)COCCOCCOCC(=O)N2CCN(CC#Cc3ccc(OCCCc4sc(N5CCCc6c5nnc(Nc5nc7ccccc7s5)c6C)nc4C(=O)O)c(F)c3)CC2)C(C)(C)C)cc1` [Example 40, 2-(3-(benzo[d]thiazol-2-ylamino)-4-methyl-6,7-dihydropyrido [2,3-c]pyridazin-8(5H)-yl)-5-(3-(2-fluoro-4-(3-(4-((S)-13-((2S,4R)-4-hydroxy-2-((4-(4-methylthiazol-5-yl)benzyl)carbamoyl)pyrrolidine-1-carbonyl)-14,14-dimethyl-11-oxo-3,6,9-trioxa-12-azapentadecanoyl)piperazin-1-yl)prop-1-yn-1-yl)phenoxy)propyl)thiazole-4-carboxylic acid], in the test on NCI-H1650, the IC50 amounted to 15.6 nM and the Emax came to 87.3%. In addition, the remaining activity at 0.3 µM at endogenous BCL-xL turned out to be 71.4%. In addition, in the test on COR-L105, the IC50 came out at 107 nM and the Emax turned out to be 82.1%.

For the molecule `Cc1ncsc1-c1ccc(CNC(=O)[C@@H]2C[C@@H](O)CN2C(=O)[C@@H](NC(=O)C2(F)CC2)C(C)(C)C)c(OCC(=O)N2CCN(CCOC34CC5(C)CC(C)(CC(Cn6ncc(-c7ccc(N8CCCc9c8nnc(Nc8nc%10ccccc%10s8)c9C)nc7C(=O)O)c6C)(C5)C3)C4)CC2)c1` [Example 50, 6-(3-(benzo[d]thiazol-2-ylamino)-4-methyl-6,7-dihydropyrido [2,3-c]pyridazin-8(5H)-yl)-3-(1-(((1r,3s,5R,7S)-3-(2-(4-(2-(2-(((2S,4R)-1-((S)-2-(1-fluorocyclopropane-1-carboxamido)-3,3-dimethylbutanoyl)-4-hydroxypyrrolidine-2-carboxamido)methyl)-5-(4-methylthiazol-5-yl)phenoxy)acetyl)piperazin-1-yl)ethoxy)-5,7-dimethyladamantan-1-yl)methyl)-5-methyl-1H-pyrazol-4-yl)picolinic acid], in the test on NCI-H1650, the IC50 came to 25.9 nM and the Emax worked out at 93.8%. The remaining activity at 0.3 µM at endogenous BCL-xL is 88%. In addition, in the test on COR-L105, the IC50 was determined as 287 nM and the Emax was 90.2%.

For the molecule `Cc1ncsc1-c1ccc([C@H](C)NC(=O)[C@@H]2C[C@@H](O)CN2C(=O)[C@@H](NC(=O)CC2(CC(=O)N3CCN(CC#Cc4ccc(OCCCc5sc(N6CCCc7c6nnc(Nc6nc8ccccc8s6)c7C)nc5C(=O)O)c(F)c4)CC3)CCCC2)C(C)(C)C)cc1` [Example 39, 2-(3-(benzo[d]thiazol-2-ylamino)-4-methyl-6,7-dihydropyrido [2,3-c]pyridazin-8(5H)-yl)-5-(3-(2-fluoro-4-(3-(4-(2-(1-(2-(((S)-1-((2S,4R)-4-hydroxy-2-(((S)-1-(4-(4-methylthiazol-5-yl)phenyl)ethyl)carbamoyl)pyrrolidin-1-yl)-3,3-dimethyl-1-oxobutan-2-yl)amino)-2-oxoethyl)cyclopentyl)acetyl)piperazin-1-yl)prop-1-yn-1-yl)phenoxy)propyl) thiazole-4-carboxylic acid], in the test on NCI-H1650, it took 38.4 nM to reach half-maximal inhibition (IC50) and the Emax is 96.4%. The remaining activity at 0.3 µM at endogenous BCL-xL worked out at 63.6%. In the test with COR-L105, the midpoint of inhibition, the IC50, lay at 524 nM and the Emax amounted to 95.3%.

Take `Cc1ncsc1-c1ccc([C@H](C)NC(=O)[C@@H]2C[C@@H](O)CN2C(=O)[C@@H](NC(=O)c2ccc(C(=O)N3CCN(CC#Cc4ccc(OCCCc5sc(N6CCCc7c6nnc(Nc6nc8ccccc8s6)c7C)nc5C(=O)O)c(F)c4)CC3)cc2F)C(C)(C)C)cc1` [Example 43, 2-(3-(benzo[d]thiazol-2-ylamino)-4-methyl-6,7-dihydropyrido [2,3-c]pyridazin-8(5H)-yl)-5-(3-(2-fluoro-4-(3-(4-(3-fluoro-4-(((S)-1-((2S,4R)-4-hydroxy-2-(((S)-1-(4-(4-methylthiazol-5-yl)phenyl)ethyl)carbamoyl)pyrrolidin-1-yl)-3,3-dimethyl-1-oxobutan-2-yl)carbamoyl)benzoyl)piperazin-1-yl)prop-1-yn-1-yl)phenoxy)propyl)thiazole-4-carboxylic acid]: the IC50 came out at 4.22 nM in the test on NCI-H1650 and 74.8 nM in the test on COR-L105. In addition, the Emax in the test on NCI-H1650 worked out at 80.3%; in the test with COR-L105 it was 85.9%. Further, the remaining activity at 0.3 µM at endogenous BCL-xL worked out at 19.9%.
